Measurements reported in patent US5216183A, “Cyclopentanone/cyclopentenone derivative” (Teijin Limited, priority 1988, dated 1993).

Test system: human osteoblasts (KK-3, 18PDL)
Assay: Measurement of bone formation activity (KK-3, 14 days)
Format: cell-based
Protocol: Human osteoblasts (KK-3, 18PDL) were cultured in an α-MEM containing 10% fetal calf serum. After the growth became stationary, the compound was added in a given concentration in the presence of 2 mM α-glycerophosphate and treated for 14 days. The cell phase was washed with physiological saline, and the alkaline phosphatase activity (ALP) was measured through the absorption of OD415. Then, calcium (Ca) and phosphorus (P) were extracted with a 2N hydrochloric acid and quantitatively determined.

[1] = Table 36, 10^-6 M, control 1.17 ± 0.03
[2] = Table 36, 10^-6 M, control 2.33 ± 1.15
[3] = Table 33, 10^-5 M, control 0.80 ± 0.02
[4] = Table 33, 10^-5 M, control 15.67 ± 1.53
[5] = Table 33, 10^-5 M, control 22.67 ± 3.06
[6] = Table 33, 10^-6 M, control 0.80 ± 0.02
[7] = Table 33, 10^-6 M, control 22.67 ± 3.06
[8] = Table 35, 10^-5 M, control 1.23 ± 0.02
[9] = Table 35, 10^-5 M, control 3.00 ± 1.00
[10] = Table 35, 10^-6 M, control 1.23 ± 0.02
[11] = Table 35, 10^-6 M, control 3.00 ± 1.00
[12] = Table 35, 10^-6 M, control 5.67 ± 0.58

Work on `Cn1ccnc1SC1=CC(O)(CCCCOc2ccccc2)C(=CC=C2CCCCC2)C1=O` (stereo not drawn) yielded an ALP [1] of 1.09 OD415 /dish, a Ca [2] of 15.33 μg/dish and an ALP (Table 36, 10^-7 M, control 1.17 ± 0.03) of 1.19 ± 0.06 OD415 /dish. For the same compound, the Ca (Table 36, 10^-7 M, control 2.33 ± 1.15) was 3.33 ± 0.58 μg/dish and the P (Table 36, 10^-7 M, control 5.00 ± 0.00) was 5.67 ± 0.58 μg/dish.
With `COC(=O)CCCC#CCC1C(=O)C(SC)=CC1(O)CCCCOc1ccccc1` (stereo not drawn) the ALP [3] was 0.98 ± 0.08 OD415 /dish, the P [4] was 35.33 ± 0.58 μg/dish and the Ca [5] was 58.67 ± 1.53 μg/dish. It also gave an ALP [6] of 0.90 OD415 /dish and a Ca [7] of 24.33 ± 1.53 μg/dish.
In the case of `Cn1ccnc1SC1=CC(O)(CCCCOc2ccccc2)C(C(O)C2=C(C(C)(C)O)CCCC2)C1=O` (stereo not drawn), the ALP (Table 36, 10^-5 M, control 1.17 ± 0.03) is reported as 0.87 OD415 /dish, the Ca (Table 36, 10^-5 M, control 2.33 ± 1.15) is reported as 50.67 μg/dish and the ALP [1] is reported as 1.20 ± 0.05 OD415 /dish. For the same compound, the Ca [2] was 2.00 ± 0.00 μg/dish and the P (Table 36, 10^-6 M, control 5.00 ± 0.00) was 5.00 ± 1.00 μg/dish.
For `CSC1=CC(CCCCOc2ccccc2)C(=C/C=C/C(O)CCCO)C1=O` (stereo not drawn), the ALP [3] was 0.79 ± 0.02 OD415 /dish, the P [4] was 31.00 ± 1.00 μg/dish and the Ca [5] was 50.67 ± 1.15 μg/dish. The ALP [6] was 0.76 OD415 /dish and the Ca [7] was 19.67 ± 2.52 μg/dish.
Compound `CC(C)OC(=O)OC(/C=C/C(O)CCCO)C1C(=O)C(Sc2nccn2C)=CC1(O)CCCCOc1ccccc1` (stereo not drawn) has an ALP [8] of 0.165 OD415 /dish, a Ca [9] of 136.67 μg/dish and an ALP [10] of 1.24 ± 0.03 OD415 /dish. For the same compound, the Ca [11] was 54.67 ± 2.08 μg/dish and the P [12] was 35.00 ± 2.00 μg/dish.
Work on `CSC1=CC(O)(CCCCOc2ccccc2)C(C(/C=C/C(O)CCCO)OC(C)=O)C1=O` (stereo not drawn) yielded an ALP [8] of 0.17 OD415 /dish, a Ca [9] of 104.00 μg/dish and an ALP [10] of 1.10 ± 0.06 OD415 /dish. It also gave a Ca [11] of 24.08 ± 2.00 μg/dish and a P [12] of 18.00 ± 1.00 μg/dish.
Compound `Cn1ccnc1SC1=CC(O)(CCCCOc2ccccc2)C(=CC=CC2(O)CCCCC2)C1=O` (stereo not drawn) has an ALP (Table 30, 10^-6 M, control 0.60 ± 0.02) of 0.11 OD415 /dish, a Ca (Table 30, 10^-6 M, control 3.00 ± 1.73) of 85.67 μg/dish and an ALP (Table 30, 10^-7 M, control 0.60 ± 0.02) of 0.58 ± 0.03 OD415 /dish. The Ca (Table 30, 10^-7 M, control 3.00 ± 1.73) was 14.00 ± 1.00 μg/dish and the P (Table 30, 10^-7 M, control 5.33 ± 1.15) was 12.67 ± 1.15 μg/dish.
Work on `CSC1=CC(O)(CCCCOc2ccccc2)C(C(/C=C/C(O)CCCO)OC(=O)OC(C)C)C1=O` (stereo not drawn) yielded an ALP [8] of 0.18 OD415 /dish, a Ca [9] of 109.67 μg/dish and an ALP [10] of 1.22 ± 0.06 OD415 /dish. It also gave a Ca [11] of 25.00 ± 1.73 μg/dish and a P [12] of 19.67 ± 1.15 μg/dish.
For `CSC1=CC(O)(CCCCOc2ccccc2)C(CC=CC(O)CCCO)C1=O` (stereo not drawn), the ALP (Table 32, 10^-5 M, control 0.80 ± 0.01) was 0.56 OD415 /dish, the Ca (Table 32, 10^-5 M, control 23.00 ± 1.00) was 30.67 ± 2.31 μg/dish and the ALP (Table 32, 10^-6 M, control 0.80 ± 0.01) was 0.84 ± 0.03 OD415 /dish. For the same compound, the P (Table 32, 10^-6 M, control 15.67 ± 0.58) was 9.33 ± 1.15 μg/dish and the Ca (Table 32, 10^-6 M, control 23.00 ± 1.00) was 10.67 ± 1.53 μg/dish.
`Cn1ccnc1SC1=CC(O)(CCCCOc2ccccc2)C(=CC=CC(O)CCCO)C1=O` (stereo not drawn) [drawing 1069] was tested, and the ALP (Table 26, 10^-6 M, control 0.27 ± 0.04) was 0.48 ± 0.04 OD413 /dish, the P (Table 26, 10^-6 M, control 30.68 ± 3.33) was 46.43 ± 1.41 μg/dish and the Ca (Table 26, 10^-6 M, control 45.61 ± 6.19) was 79.83 ± 0.58 μg/dish. The ALP (Table 26, 10^-7 M, control 0.27 ± 0.04) was 0.33 OD413 /dish and the Ca (Table 26, 10^-7 M, control 45.61 ± 6.19) was 61.95 μg/dish.
Compound `COC(=O)COc1cccc(C=C2C(=O)C(SC)=CC2(O)CCCCOc2ccccc2)c1` (stereo not drawn) [drawing 1073] has an ALP (Table 29, 10^-7 M, control 0.77 ± 0.20) of 0.52 ± 0.10 OD413 /dish, a P (Table 29, 10^-7 M, control 18.64 ± 3.16) of 21.72 ± 8.88 μg/dish and a Ca (Table 29, 10^-7 M, control 31.26 ± 3.00) of 36.18 ± 14.29 μg/dish. For the same compound, the ALP (Table 29, 10^-8 M, control 0.77 ± 0.20) was 0.64 OD413 /dish and the Ca (Table 29, 10^-8 M, control 31.26 ± 3.00) was 49.16 ± 26.04 μg/dish.
`CCCCC1=C(Sc2nccn2C)C(=O)C(=CC=CC(O)CCCO)C1(O)CCCCOc1ccccc1` (stereo not drawn) [drawing 1079] showed an ALP (Table 31, 10^-7 M, control 0.18 ± 0.06) of 0.12 ± 0.01 OD415 /dish, a Ca (Table 31, 10^-7 M, control 1.88 ± 0.31) of 4.85 ± 0.84 μg/dish and a P (Table 31, 10^-7 M, control 4.73 ± 0.37) of 6.68 ± 0.34 μg/dish. The ALP (Table 31, 10^-8 M, control 0.18 ± 0.06) was 0.17 OD415 /dish and the Ca (Table 31, 10^-8 M, control 1.88 ± 0.31) was 2.46 μg/dish.
